Assay results as given in a melting point compilation (Tetko et al.; mined from patent text by program, amines drawn as free bases though some values may be those of a salt).

SMILES	melting point [°C]
O=[N+]([O-])c1ccc2c(-n3ccnc3)nnc(NCc3ccc4c(c3)OCO4)c2c1	154 to 156
CC(C)(C)Oc1nc2cc(F)c([N+](=O)[O-])cc2[nH]c1=NC#N	161 to 164
O=[N+]([O-])c1cccc(O)c1Cl	130
CC(C)(C)c1cc(C(O)CN)cc(C(C)(C)C)c1O (configuration not stated)	137 to 140
CN1Cc2c(-c3nc(CCl)co3)ncn2-c2ccccc2C1=O	196 to 198
O=c1ccn([C@H]2C=C[C@@H](O)CC2)c(=O)[nH]1 (racemic)	161 to 162
O=c1[nH]nc(-c2ccc(OC3CCN(C4CCC4)CC3)cc2)c2c1CCC2	210 to 213
Nc1ncc(Br)nc1OCC1CCCC1	78 to 79
C=CCN(CC=C)c1ccc(NCCO)cc1[N+](=O)[O-]	166 to 170
Nc1cccc(C(=O)Nc2ccc(C(=O)N3CCCc4ccccc43)cc2)c1	206
NS(=O)(=O)c1ccc2c(c1)C(=O)C1(CCOC1=O)S2 (configuration not stated)	199 to 201
N#CC(=Cc1ccsc1)C(=O)O	211
O=C1CCCCC1c1cncc(Br)c1 (configuration not stated)	67 to 69
Cc1cccc(NC(=O)NCC(=O)N(c2ccccc2)C(C(=O)N2CCCC2)c2ccccc2)c1 (racemic)	138
N#CCn1nnnc1S	116 to 118
Cc1ccc2ncc(Oc3c(Cl)cc(NS(=O)(=O)c4cc(C)c(Cl)cc4Cl)cc3Cl)cc2c1	228 to 230
Cn1c(=N)sc2ccccc21	122
COc1ccc(-c2ccc3c(c2)C(C)(C)CCC3(C)C)cc1-c1ccc(C(=O)O)cc1	148 to 152
C=C(C)c1cccc(-n2c(C(F)(F)F)nn(C)c2=S)c1	64 to 66
N#Cc1ccc(Nc2cccc(I)c2)c([N+](=O)[O-])c1	211 to 212
COc1cc(N2CCCCC2)c(Cl)cc1CC(=O)O	120 to 122

SMILES	melting point [°C]
CCOC(=O)C1=CNC2=C(C(=O)OC)CCC(C)N2C1=O (configuration not stated)	136 to 139
CCC[C@@H]1COC(=O)N1c1nc(-c2ccc(C#N)cc2)cs1	131 to 133
Nc1nc(C2CC2)nc(C(Cl)(Cl)Cl)n1	111 to 114
CC(=O)N[C@H](COC(F)F)C(=O)NCc1ccc(F)cc1	163
O=c1c(-c2ccccc2)c(SCc2ccncc2)oc2cc(OCc3ccccc3)ccc12	169 to 170
O=C(O)C1CCc2c(c3ccccc3n2C(=O)c2cccc(F)c2)C1 (configuration not stated)	170 to 171
CC1CC=C(c2nnn(C)n2)CN1C (configuration not stated)	93 to 95
CC(=O)N1CCN(C2=CC(C)(C)Oc3ccc(C#N)cc32)C1=NC#N	200 to 201
Cc1ccc2c3c(ccc2n1)OCC(CN1CCC(c2nc4ccccc4o2)CC1)O3 (configuration not stated)	128 to 130
COc1cc2c(c3c1OC(C)(C)C3)C(c1ccccc1)=NC(C)(CN1C(=O)c3ccccc3C1=O)C2 (configuration not stated)	121 to 125
Clc1ccn(-c2cccnc2)n1	98 to 106
COc1ncc([N+](=O)[O-])c(OC)n1	92 to 93
Cn1cnc(=O)[nH]c1=O	213 to 214
Cc1nc2c(N)nc3c(c2n1CCCCS(C)(=O)=O)CCCC3	213 to 216
Fc1ccc(C2(Cl)CN(C(c3ccccc3)c3ccccc3)C2)cc1	108 to 109
Cc1cc2c(cc1C1=NNC(=O)CC1)N(C)C(=O)C(C)O2 (configuration not stated)	210 to 212
O=C1CCCc2nc3cc(F)ccc3c(NCc3ccccc3C(F)(F)F)c21	146 to 151
CN(C(=O)C(F)(F)F)N1CCc2ccccc2C(Oc2ccc(C(F)(F)F)cc2)C1 (configuration not stated)	210 to 212
CN(C1CCNCC1)S(=O)(=O)c1ccc(Nc2nccc(-c3ccc(F)cc3)n2)cc1	116
Cc1ccc(CNc2cccc3c2CN(C2CCC(=O)NC2=O)C3=O)o1 (configuration not stated)	242 to 244
C#CCN(C(C)=O)c1cccc(-c2ccc3nncn3n2)c1	195 to 198

Next, values leading:

melting point [°C]	SMILES
240 to 242	COC(=O)c1cccc(CNC(=O)C2CC2)c1C(=O)OC
74 to 77	COC(=O)c1cccc(-c2nnc(-c3ccc(C(C)C)cc3)o2)c1
51 to 53	COc1ccc(OCC#CCCC(N)N2C(=O)c3ccccc3C2=O)cc1 (configuration not stated)
120	CC1Nc2ccc(NC(=O)c3ccc(C(=NN)C(=O)OCc4ccccc4)cc3)cc2CN(CCc2ccccc2)C1=O (configuration not stated)
87 to 89	CCCc1c(OCCCCCC(=O)NCCCCc2cncnc2)ccc(C(C)=O)c1O
155 to 158	CCOC(=O)Cc1ccc(-c2cn3cccnc3n2)cc1
135	CCCCNC(=O)COC1C(O)C(CO)OC(Oc2ccc(N)cc2)C1O (configuration not stated)
117 to 118	COc1ccc(COC(=O)C(=CNc2ncccc2OC(=S)N(C)C)C(=O)OCc2ccc(OC)cc2)cc1
125 to 126	CCOC(=O)CCn1c(-c2ccc(F)cc2)cc2ccccc2c1=O
> 260	COC(=O)CCc1ccc(-n2ccn(-c3ccc(C(=N)NC(=O)OC)cc3)c2=O)cc1
52 to 53	COC(=O)c1cc([N+](=O)[O-])ccc1F
163 to 168	CCN(CC)C1CCN(c2cccc(-c3cnn4c(N)c(-c5cccc(Cl)c5)c(C)nc34)c2)CC1
173 to 174	CN(C(CCn1c(=O)cc(C(F)(F)F)[nH]c1=O)C(=O)NO)S(=O)(=O)c1ccc(Oc2ccc(Cl)cc2)cc1 (configuration not stated)
146 to 149	CNC(=O)c1c(-c2ccccc2)noc1CC(=O)c1ccccn1
146	COc1ccc(CN(C)CCCOc2ccc(NC(=O)c3cccc4c(=O)c5cccc(C)c5[nH]c34)c(C)c2)cc1OC
115 to 117	COC(=O)c1ccc(OCCC2CCN(c3cc(Cl)nnc3Cl)CC2)cc1
152 to 153	CCCCOc1c(CNC(=O)OC(C)(C)C)n(CC(C)C)c(=O)c2ccc(-c3nnn[nH]3)cc12
112 to 115	COc1ccc(OC)c(C=CCN2CCc3nc(N)sc3CC2)c1
184	O=C(c1ccc(F)cc1)C1CCN(CCCc2nc3ccccc3c(=O)[nH]2)CC1
271 to 272	O=C(O)c1cccc(-c2cccc([N+](=O)[O-])c2)c1
214	COc1ccc(Nc2c(N)cc(C(=O)O)cc2S(N)(=O)=O)cc1
202 to 203	O=C(O)c1ccc(Sc2ccc(C(=O)O)c(C(=O)O)c2)cc1C(=O)O
65 to 67	CCCCCCCCN1C(=O)NC2(CC(C)(CC)NC(C)(CC)C2C)C1=O (configuration not stated)
160 to 162	CCNC1CCN(c2c(F)cc3c(=O)c(C(=O)O)cn(C4CC4)c3c2OC)CC1C (configuration not stated)
209	COC(=O)COc1ccc(C)c2c1c1c(n2Cc2ccccc2)CCCC1C(N)=O (configuration not stated)
77 to 78	COc1ccc(CN2N=C(c3ccc(OC)c(OC)c3)[C@@H]3CCCC[C@@H]3C2=O)cc1 (relative stereo)
158 to 160	CCC(NC(=O)OCc1ccccc1)C(=O)Nc1ccc(-n2nc(C(F)(F)F)cc2C(F)(F)F)cc1 (configuration not stated)
203	COc1ccc(C(C)=O)cc1C=CC(=O)O

melting point [°C]	SMILES
174 to 176	Cn1cnc(CNC(=O)c2ccnc(N3CCN(Cc4ccc(F)cc4)C3=O)c2)c1
245 to 247	CCN1C(=O)C(NC(=O)C(F)(F)F)CCc2c1ccc(Nc1ncc(Cl)c(Nc3ccccc3S(=O)(=O)C(C)C)n1)c2OC (configuration not stated)
194 to 196	CCCCC1(O)CCN(CC23CC(c4ccccc42)c2ccccc23)CC1
127	O=C(C(=O)c1cccc(I)c1)c1cccc(I)c1
114 to 115	COC(=O)Cc1ccc(OCC2CN(c3ccc(C#N)cc3)C(=O)O2)cc1 (configuration not stated)
106 to 107	CCOC(=NC(=O)c1ccc(Cl)cc1)N1Cc2ccccc2-c2ccccc2C1
48 to 50	CCOC(=O)c1ccc(N(CC)Cc2ccc(Cl)cc2)cc1
149 to 150	CC(=NOCCOc1ccc(C(=O)O)c(O)c1)c1ccccc1
209	Cc1ccc(-c2ccc(C(=O)Nc3ccc4cc(CN5CCCCCC5)cnc4c3)cc2)cc1
71	CCOC(=O)c1cccc(N(CC(=O)OC(C)(C)C)C(=O)CNC(=O)Nc2cccc(C)c2)c1
137 to 139	C=Cc1cccc(-c2nc(CCOc3ccc(OC(C)(C)C(=O)O)cc3)c(C)o2)c1
85 to 88	COc1ccc(C(OC(C)=O)C(COC(C)=O)[N+](=O)[O-])cc1OC (configuration not stated)
154 to 156	Cc1cc(Oc2ccc(Cl)c(Cl)c2)ccc1S(C)(=O)=O
151 to 152	CNS(=O)(=O)c1cc(S(=O)(=O)NCc2ccccc2)c(Cl)cc1N
76 to 80	CCCCS(=O)(=O)Nc1ccc(C(=O)c2ccccc2)cc1
66 to 67	CCOC(=O)C(C)(C)c1nc2ccc(Cl)nn2c1Cl
117 to 118	COc1nc(C(F)F)cnc1NS(=O)(=O)c1cccc(Cl)c1Cl
114	COc1ccc(O)c(C(C)(O)c2ccccc2)c1 (configuration not stated)
149 to 151	CCCCCCCCNC(=O)Nc1ccccc1C(=O)NC1CCN(C(c2ccccc2)c2ccccc2)CC1
124	CCOC(=O)C(NC=O)=C1CC2CCC(C1)N2C(=O)OCc1ccccc1
216 to 217	COc1ccc(COC(=O)C2N3C(=O)C(N4C(=O)c5ccccc5C4=O)C3SCC2(C)O)cc1 (configuration not stated)
242	CCC(=O)NS(=O)(=O)c1cccc(-c2cc(-c3nc(-c4ccc(C(F)(F)F)nc4)cc(C(F)(F)F)n3)ccn2)c1
156 to 158	CCc1nc(/C=C/c2cn(-c3ccccc3)nc2OCc2cc(OCc3nc(-c4ccc(CC(=O)O)cc4)oc3C)no2)cs1
108 to 109	O=C(NCCO)c1cccc(-c2ccc3c(c2)N(c2cc(Cl)cc(Cl)c2)CC3)c1
121 to 123	COC(=O)CC1CCc2cc(O)ccc2C1=O (configuration not stated)
181	CCS(=O)(=O)c1cc(C(=O)NCC2CCCN2CC2CC2)c(OC)cc1N (configuration not stated)
201	CC(C)(C)OC(=O)Nc1ccc(-c2ccccc2F)cc1NC(=O)CC(=O)c1ccc(C#N)s1
